In ChEMBL document CHEMBL3259636, “Phenyl carboxamide analogues as spleen tyrosine kinase (syk) inhibitors” (ACS Med Chem Lett, 2014):
pIC50: −log10 of the molar value.

Target: Tyrosine-protein kinase SYK (Homo sapiens, UniProt P43405)
Assay: Inhibition of human recombinant SYK by HTRF assay

`NC(=O)c1ccc(N[C@@H]2CCCC[C@@H]2N)cc1Nc1cccc(-c2cccc(F)c2)n1` and `NC(=O)c1ccc(N[C@@H]2CCCC[C@@H]2N)cc1Nc1cccc(-c2ccc(F)c(F)c2)n1` cannot be ordered by pIC50: > 8.82 for the first, > 8.82 for the second.

`NC(=O)c1ccc(N[C@@H]2CCCC[C@@H]2N)cc1Nc1cccc(-c2ccccc2)n1` and `COc1ccc(-c2cccc(Nc3cc(N[C@@H]4CCCC[C@@H]4N)ccc3C(N)=O)n2)cc1` cannot be ordered by pIC50: > 8.82 for the first, > 8.82 for the second.

For `Cc1cccc(Nc2cc(N[C@@H]3CCCC[C@@H]3N)ccc2C(N)=O)n1`, the pIC50 was < 8.82.
